Reference: patent US6730666B1, “Pharmaceutical compositions comprising porphyrins and some novel porphyrin derivatives” (Yeda Research and Development Co. Ltd., priority 1998, dated 2004)
Entries after “also recorded” stand apart in the source; their conditions may differ.

Legend:
[1] = tested on: Lewis lung carcinoma (LLC) lung metastasis; assay: Lewis lung carcinoma lung metastasis model; assay type: in vivo, C57 black mice; set-up: Inhibitory activity in vivo, LLC tumor model (as % of total inhibition): reference not given here
Protocol: (vii) Lewis lung carcinoma tumor assay. Murine Lewis lung carcinoma (LLC) D122 cells (1×10^6 cells/[…] PBS) were injected into the foot pads of 10-week old C57 black mice (O'Reilly et al, 1994). Twenty five μg/g of body mass of porphyrin or corrole compound dissolved in PBS were injected IP twice a week to the treated group, and tumor size was measured periodically in order to follow primary tumor formation. In order to evaluate inhibition of lung metastasis by porphyrin or corrole compound, the primary tumors were allowed to develop over a period of six weeks to a volume of approximately 8 mm^3; after which the tumors were removed and metastases were allowed to develop for four weeks. During this time the treated group received 25 μg/g of body mass of porphyrin or corrole compound IP twice a week. Subsequently the mice were sacrificed, dissected and the lungs removed and photographed. The extent of lung metastasis was measured by weighing the lungs.
After establishing the capacity of P1 to inhibit primary tumor growth, the capacity of P1 to inhibit lung metastasis formation was measured as described in Methods, section (vi). Mice were injected with LLC cells (200,000 cells per mouse) into the foot pad and primary tumors were allowed to develop over a period of 3 to 4 weeks to a volume of approximately 8 mm^3. Subsequently, primary tumors were removed through amputation and lung metasases were allowed to develop for four weeks before the mice were sacrificed. The extent of lung metastasis at this point was examined by gross morphological examination and by determining the gain in lung weight. […] In order to quantitate the results from these experiments, the lungs from all mice were weighed and evaluated for the extent of metastatic growth.

[2] = biological target: FGF receptor (Mus musculus, UniProt P16092); assay: In vitro inhibition of bFGF binding (assay format not stated)
[3] = biological target: T1, soluble FGFR-1 (FRAP) (Mus musculus, UniProt P16092); assay: Binding of 125I-bFGF to immobilized soluble FGFR-1 (FRAP), cell-free
T1 sequence (P16092 22-376 limits assumed): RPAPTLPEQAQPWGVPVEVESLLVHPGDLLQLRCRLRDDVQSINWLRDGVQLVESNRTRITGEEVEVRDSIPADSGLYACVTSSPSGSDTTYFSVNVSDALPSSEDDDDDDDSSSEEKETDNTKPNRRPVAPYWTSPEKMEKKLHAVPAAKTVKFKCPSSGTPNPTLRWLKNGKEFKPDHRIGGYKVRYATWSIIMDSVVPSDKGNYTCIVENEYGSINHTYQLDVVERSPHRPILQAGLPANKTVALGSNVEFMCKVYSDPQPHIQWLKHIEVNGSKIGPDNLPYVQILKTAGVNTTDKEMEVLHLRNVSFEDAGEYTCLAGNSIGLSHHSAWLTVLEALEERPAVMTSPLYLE
Excerpt: First we utilized a cell-free system, measuring the binding of radiolabeled bFGF to a dimeric soluble FGFR-1 fused to alkaline phosphatase. […] As a: second experimental model, we used CHO cells deficient in heparan sulfate and genetically engineered to express FGFR-1 (Methods, section (iv)).

[4] = biological target: T2, FGFR-3 (Homo sapiens, UniProt P22607); assay: Binding of 125I-FGF9 to immobilized soluble FGFR-3 (FR-3-AP); conditions: FIG. 11
T2 construct: soluble FGFR-3 ectodomain alkaline phosphatase fusion protein (FR-3-AP); made in house; host or cells: NIH 3T3 cells (conditioned medium)
T2 sequence (P22607 23-375 limits assumed): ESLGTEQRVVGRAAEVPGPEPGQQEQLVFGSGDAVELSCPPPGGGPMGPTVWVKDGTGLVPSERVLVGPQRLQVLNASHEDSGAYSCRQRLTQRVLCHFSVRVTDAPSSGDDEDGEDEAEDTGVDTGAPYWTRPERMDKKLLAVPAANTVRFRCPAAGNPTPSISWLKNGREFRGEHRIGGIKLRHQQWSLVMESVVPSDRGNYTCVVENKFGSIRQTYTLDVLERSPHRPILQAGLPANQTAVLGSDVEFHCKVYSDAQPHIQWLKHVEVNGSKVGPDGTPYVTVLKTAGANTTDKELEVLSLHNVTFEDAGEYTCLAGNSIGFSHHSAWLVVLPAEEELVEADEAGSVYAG
Protocol: Incubations were performed in the presence of 100 ng/ml heparin and increasing concentrations of porphyrins. […] Results represent the mean value in one of at least two independent experiments.
(iii) Binding of ^125I-bFGF or ^125I-FGF9 to s luble FGFR-1 or FGFR-3. Conditioned medium from NIH 3T3 cells secreting soluble FRAP or FGFR-3 FR-3-AP, was incubated for 45 min at room temperature with rabbit anti-human placental AP antibodies (generated as described in Ornitz et al, 1991) prebound to agarose-protein A beads Pierce). The FGFR-1 or FGFR-3-coupled beads were washed three times with 1 ml HNTG and incubated with 2 ng/ml of ^125I-FGF, 1 μg/ml of heparin and porphyrin/corrole compound at different concentrations for 1 h at room temperature. High affinity-bound ^125I-bFGF was determined by counting of the samples in a γ-counter.
Thus, the compounds were tested for their capacity to inhibit binding of a soluble FGFR-3 ectodomain alkaline phosphatase fusion protein (FR-3-AP) to FGF-9, utilizing a cell free system, similar to the one described for FGFR-1 in Example 1 above, and measuring the binding of radiolabeled ^125I-FGF-9 to soluble FGFR-3.

[5] = biological target: FGFR-1 (Mus musculus, UniProt P16092); assay: Binding of 125I-bFGF to CHO cells expressing FGFR-1; conditions: read-out: Cellular receptor binding (IC50); binding of FGF to FGFR; Methods section (iv)
Chain of FGFR-1 (P16092 22-822): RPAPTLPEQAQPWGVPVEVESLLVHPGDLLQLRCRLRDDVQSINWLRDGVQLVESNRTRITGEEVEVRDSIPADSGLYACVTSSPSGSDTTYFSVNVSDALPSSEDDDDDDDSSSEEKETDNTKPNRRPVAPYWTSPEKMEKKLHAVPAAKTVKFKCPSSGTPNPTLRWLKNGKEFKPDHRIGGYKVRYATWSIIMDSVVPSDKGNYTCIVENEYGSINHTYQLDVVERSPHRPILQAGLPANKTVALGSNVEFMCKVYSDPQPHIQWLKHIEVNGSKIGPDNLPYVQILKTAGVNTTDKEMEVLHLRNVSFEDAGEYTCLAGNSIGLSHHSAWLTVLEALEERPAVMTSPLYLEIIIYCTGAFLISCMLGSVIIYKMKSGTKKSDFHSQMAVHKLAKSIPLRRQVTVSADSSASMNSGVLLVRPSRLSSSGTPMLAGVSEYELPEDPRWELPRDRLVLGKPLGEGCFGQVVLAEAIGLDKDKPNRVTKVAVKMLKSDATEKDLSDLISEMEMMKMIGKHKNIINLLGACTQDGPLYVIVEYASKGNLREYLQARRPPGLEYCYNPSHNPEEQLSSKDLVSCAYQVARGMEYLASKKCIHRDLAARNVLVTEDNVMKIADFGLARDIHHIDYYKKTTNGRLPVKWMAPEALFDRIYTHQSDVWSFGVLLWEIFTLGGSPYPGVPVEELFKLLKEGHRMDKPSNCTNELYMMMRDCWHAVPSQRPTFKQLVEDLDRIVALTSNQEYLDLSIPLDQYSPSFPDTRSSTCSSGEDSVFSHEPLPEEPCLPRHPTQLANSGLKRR
Protocol: The binding medium was discarded and the cells were washed once with ice-cold DMEM/BSA and twice with cold PBS (pH 7.5) containing 1.6M NaCl. […] Non-specific binding was determined in the presence of a 100-fold excess of unlabeled bFGF.
First we utilized a cell-free system, measuring the binding of radiolabeled bFGF to a dimeric soluble FGFR-1 fused to alkaline phosphatase. The soluble FRAP was immobilized using an anti-alkaline phosphatase antibody prebound to agarose-protein A beads (see Methods, section (iii)). As a: second experimental model, we used CHO cells deficient in heparan sulfate and genetically engineered to express FGFR-1 (Methods, section (iv)).

Chain of FGF receptor (P16092 22-822): as above

Row | Relative potency in FGF-9/FGFR-3 soluble receptor assay, in words [4] | IC50 [5] | IC50 ([3]; read-out: Soluble receptor binding (IC50), binding of FGF to FGFR, Methods section (iii)) | SMILES | Inhibition of lung metastasis in LLC model, in words ([1]; 25 μg/g of body mass IP) | Inhibitory activity in vivo, LLC tumor model (as % of total inhibition) ([1]; 25 μg/gram, LLC murine tumor model, lung metastasis) | Activity in vitro in words (inhibition of bFGF binding) [2] | Inhibition of bFGF binding to immobilized FRAP, in words ([3]; FIG. 8B)
1 | – | – | – | C[n+]1ccccc1-c1c(F)c(F)c(-c2c3nc(c(-c4c(F)c(F)c(-c5cccc[n+]5C)c(F)c4F)c4ccc([nH]4)c(-c4c(F)c(F)c(-c5cccc[n+]5C)c(F)c4F)c4nc(c(-c5c(F)c(F)c(-c6cccc[n+]6C)c(F)c5F)c5ccc2[nH]5)C=C4)C=C3)c(F)c1F [Compound P20, 5,10,15,20-Tetrakis[4-(N-methyl-2-pyridylium) 2,3,5,6-tetrafluoro-phenyl]-21H,23H-porphine tetraiodide] | highly active in vivo; also recorded: more active than P1 | 150% | significantly more active than P1 | inhibit bFGF binding in vitro
2 | more potent | 0.12 µM | 0.08 µM | C[N+](C)(C)c1c(F)c(F)c(-c2c3nc(c(-c4c(F)c(F)c([N+](C)(C)C)c(F)c4F)c4ccc([nH]4)c(-c4c(F)c(F)c([N+](C)(C)C)c(F)c4F)c4nc(c(-c5c(F)c(F)c([N+](C)(C)C)c(F)c5F)c5ccc2[nH]5)C=C4)C=C3)c(F)c1F.O=S(=O)([O-])C(F)(F)F.O=S(=O)([O-])C(F)(F)F.O=S(=O)([O-])C(F)(F)F.O=S(=O)([O-])C(F)(F)F [Compound P15, 5,10,15,20-Tetrakis(2,3,5,6-tetrafluoro-4-trimethyl-ammonio-phenyl)-21H,23H-methyl-porphine tetra-trifluoromethylsulfonate] | – | – | – | –
